The record followed here is ChEMBL document CHEMBL4387741, “Optimization of novel reversible Bruton's tyrosine kinase inhibitors identified using Tethering-fragment-based screens” (Bioorg Med Chem, 2019).

In assay [1] the target is Phosphatidylinositol 4-phosphate 5-kinase type-1 gamma (Homo sapiens) (UniProt O60331). The experiment in a line: Inhibition of wild-type human partial length PIP5K1C (M1 to T668 residues) expressed in mammalian expression system at 10 uM by Kinomescan method relative to control.
The target of assay [2] is Casein kinase I isoform gamma-1 (Homo sapiens) (UniProt Q9HCP0). Nature of the assay: Inhibition of wild-type human partial length CSNK1G1 (T15 to S353 residues) expressed in bacterial expression system at 10 uM by Kinomescan method relative to control.
The target in assay [3] is Tyrosine-protein kinase ABL1 (Homo sapiens) (UniProt P00519). The experiment in a line: Inhibition of wild-type human phosphorylated ABL1 (S229 to K512 residues) expressed in mammalian expression system at 10 uM by Kinomescan method relative to control.
Assay [4] addresses Ephrin type-A receptor 1 (Homo sapiens) (UniProt P21709). Nature of the assay: Inhibition of wild-type human partial length EPHA1 (V588 to I913 residues) expressed in bacterial expression system at 10 uM by Kinomescan method relative to control.
The target of assay [5] is Casein kinase I isoform gamma-3 (Homo sapiens) (UniProt Q9Y6M4). The experiment in a line: Inhibition of wild-type human full length CSNK1G3 (M1 to K447 residues) expressed in bacterial expression system at 10 uM by Kinomescan method relative to control.
Assay [6] addresses Serine/threonine-protein kinase Nek5 (Homo sapiens) (UniProt Q6P3R8). The experiment in a line: Inhibition of wild-type human partial length NEK5 (M1 to M279 residues) expressed in bacterial expression system at 10 uM by Kinomescan method relative to control.
The target in assay [7] is Glycogen synthase kinase-3 beta (Homo sapiens) (UniProt P49841). The experiment in a line: Inhibition of wild-type human full length GSK3B (M1 to T433 residues) expressed in mammalian expression system at 10 uM by Kinomescan method relative to control.
The target of assay [8] is LIM domain kinase 1 (Homo sapiens) (UniProt P53667). The experiment in a line: Inhibition of wild-type human full length LIMK1 (M1 to D647 residues) expressed in bacterial expression system at 10 uM by Kinomescan method relative to control.
The target in assay [9] is Calcium/calmodulin-dependent protein kinase type II subunit beta (Homo sapiens) (UniProt Q13554). The experiment in a line: Inhibition of wild-type human partial length CAMK2B (M1 to Q380 residues) expressed in bacterial expression system at 10 uM by Kinomescan method relative to control.
Sequence of Calcium/calmodulin-dependent protein kinase type II subunit beta (Homo sapiens) (Q13554 whole entry, the tested form may be a part): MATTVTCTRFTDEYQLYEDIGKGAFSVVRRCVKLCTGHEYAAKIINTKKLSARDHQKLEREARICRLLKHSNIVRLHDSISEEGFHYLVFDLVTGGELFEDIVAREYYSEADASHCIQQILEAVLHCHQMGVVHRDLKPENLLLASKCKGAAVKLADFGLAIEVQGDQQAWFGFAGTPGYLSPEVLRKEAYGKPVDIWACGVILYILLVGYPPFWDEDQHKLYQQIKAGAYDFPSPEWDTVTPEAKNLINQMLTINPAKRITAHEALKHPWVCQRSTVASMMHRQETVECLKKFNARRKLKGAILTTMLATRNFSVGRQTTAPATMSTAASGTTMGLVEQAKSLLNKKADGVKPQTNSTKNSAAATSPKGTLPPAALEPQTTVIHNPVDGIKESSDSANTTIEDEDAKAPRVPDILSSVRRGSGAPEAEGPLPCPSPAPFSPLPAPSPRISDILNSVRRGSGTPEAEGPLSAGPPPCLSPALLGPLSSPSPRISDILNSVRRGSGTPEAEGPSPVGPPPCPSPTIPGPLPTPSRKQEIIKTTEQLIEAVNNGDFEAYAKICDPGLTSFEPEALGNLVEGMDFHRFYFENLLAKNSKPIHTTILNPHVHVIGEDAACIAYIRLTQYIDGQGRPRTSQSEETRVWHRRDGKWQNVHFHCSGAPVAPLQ
The target of assay [10] is Cyclin-dependent kinase 16 (Homo sapiens) (UniProt Q00536). Nature of the assay: Inhibition of wild-type human partial length PCTK1 (G160 to A474 residues) expressed in mammalian expression system at 10 uM by Kinomescan method relative to control.
The target of assay [11] is Serine/threonine-protein kinase SIK1 (Homo sapiens) (UniProt P57059). The experiment in a line: Inhibition of wild-type human partial length SIK (M1 to Y304 residues) expressed in bacterial expression system at 10 uM by Kinomescan method relative to control.
In assay [12] the target is Cyclin-dependent kinase 4/cyclin D1 (Homo sapiens) (UniProt P11802+P24385). Nature of the assay: Inhibition of wild-type human full length CDK4/cyclinD1 (M1 to E303 residues) expressed in mammalian expression system at 10 uM by Kinomescan method relative to control.
Assay [13] has as its target Rhodopsin kinase GRK1 (Homo sapiens) (UniProt Q15835). Nature of the assay: Inhibition of wild-type human full length GRK1 (M1 to S563 residues) expressed in mammalian expression system at 10 uM by Kinomescan method relative to control.
Assay [14] addresses Cyclin-dependent kinase 2 homolog (Plasmodium falciparum (isolate 3D7)) (UniProt P61075). Nature of the assay: Inhibition of wild-type Plasmodium falciparum full length PK5 (M1 to N288 residues) expressed in mammalian expression system at 10 uM by Kinomescan method relative to control.
In assay [15] the test system is Receptor-type tyrosine-protein kinase FLT3 (Homo sapiens), P36888 [K663Q]. The experiment in a line: Inhibition of human partial length FLT3 K663Q mutant (V592 to Y969 residues) expressed in bacterial expression system at 10 uM by Kinomescan method relative to control.
For assay [16], the target named is Dual serine/threonine and tyrosine protein kinase (Homo sapiens) (UniProt Q6XUX3). The experiment in a line: Inhibition of wild-type human full length RIPK5 (M1 to T929 residues) expressed in mammalian expression system at 10 uM by Kinomescan method relative to control.
Sequence of Dual serine/threonine and tyrosine protein kinase (Homo sapiens) (Q6XUX3 whole entry, the tested form may be a part): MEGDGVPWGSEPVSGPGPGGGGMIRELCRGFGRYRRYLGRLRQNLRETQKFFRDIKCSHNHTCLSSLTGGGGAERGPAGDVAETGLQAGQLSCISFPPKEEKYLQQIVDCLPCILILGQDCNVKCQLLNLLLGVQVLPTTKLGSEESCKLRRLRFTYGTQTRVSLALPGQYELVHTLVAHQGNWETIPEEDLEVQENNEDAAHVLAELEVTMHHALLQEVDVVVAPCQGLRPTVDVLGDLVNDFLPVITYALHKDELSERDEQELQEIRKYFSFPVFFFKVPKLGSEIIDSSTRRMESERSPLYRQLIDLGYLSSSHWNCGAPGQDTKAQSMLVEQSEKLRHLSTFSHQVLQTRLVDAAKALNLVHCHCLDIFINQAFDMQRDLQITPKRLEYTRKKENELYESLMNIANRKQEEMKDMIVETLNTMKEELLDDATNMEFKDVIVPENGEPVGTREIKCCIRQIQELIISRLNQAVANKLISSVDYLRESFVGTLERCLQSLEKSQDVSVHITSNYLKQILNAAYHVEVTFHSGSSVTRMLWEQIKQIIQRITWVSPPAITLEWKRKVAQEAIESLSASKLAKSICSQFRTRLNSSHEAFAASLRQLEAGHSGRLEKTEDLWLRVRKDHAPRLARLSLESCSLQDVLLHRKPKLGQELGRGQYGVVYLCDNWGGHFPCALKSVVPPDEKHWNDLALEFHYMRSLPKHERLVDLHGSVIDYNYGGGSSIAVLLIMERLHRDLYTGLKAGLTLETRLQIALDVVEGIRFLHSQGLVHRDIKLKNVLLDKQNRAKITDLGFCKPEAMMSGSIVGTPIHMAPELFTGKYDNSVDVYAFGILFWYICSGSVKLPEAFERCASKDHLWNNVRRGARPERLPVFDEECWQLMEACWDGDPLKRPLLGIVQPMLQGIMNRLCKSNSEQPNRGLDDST
Assay [17] deals with Fibroblast growth factor receptor 3 (Homo sapiens) (UniProt P22607). Nature of the assay: Inhibition of wild-type human partial length FGFR3 (R442 to S771 residues) expressed in bacterial expression system at 10 uM by Kinomescan method relative to control.
Assay [18] deals with Leucine-rich repeat serine/threonine-protein kinase 2 (Homo sapiens), Q5S007 [G2019S]. The experiment in a line: Inhibition of human partial length LRRK2 G2019S mutant (H970 to E2527 residues) expressed in mammalian expression system at 1 uM by Kinomescan method relative to control.
Sequence of Leucine-rich repeat serine/threonine-protein kinase 2 (Homo sapiens), Q5S007 [G2019S] (Q5S007 whole entry G2019S, the tested form may be a part): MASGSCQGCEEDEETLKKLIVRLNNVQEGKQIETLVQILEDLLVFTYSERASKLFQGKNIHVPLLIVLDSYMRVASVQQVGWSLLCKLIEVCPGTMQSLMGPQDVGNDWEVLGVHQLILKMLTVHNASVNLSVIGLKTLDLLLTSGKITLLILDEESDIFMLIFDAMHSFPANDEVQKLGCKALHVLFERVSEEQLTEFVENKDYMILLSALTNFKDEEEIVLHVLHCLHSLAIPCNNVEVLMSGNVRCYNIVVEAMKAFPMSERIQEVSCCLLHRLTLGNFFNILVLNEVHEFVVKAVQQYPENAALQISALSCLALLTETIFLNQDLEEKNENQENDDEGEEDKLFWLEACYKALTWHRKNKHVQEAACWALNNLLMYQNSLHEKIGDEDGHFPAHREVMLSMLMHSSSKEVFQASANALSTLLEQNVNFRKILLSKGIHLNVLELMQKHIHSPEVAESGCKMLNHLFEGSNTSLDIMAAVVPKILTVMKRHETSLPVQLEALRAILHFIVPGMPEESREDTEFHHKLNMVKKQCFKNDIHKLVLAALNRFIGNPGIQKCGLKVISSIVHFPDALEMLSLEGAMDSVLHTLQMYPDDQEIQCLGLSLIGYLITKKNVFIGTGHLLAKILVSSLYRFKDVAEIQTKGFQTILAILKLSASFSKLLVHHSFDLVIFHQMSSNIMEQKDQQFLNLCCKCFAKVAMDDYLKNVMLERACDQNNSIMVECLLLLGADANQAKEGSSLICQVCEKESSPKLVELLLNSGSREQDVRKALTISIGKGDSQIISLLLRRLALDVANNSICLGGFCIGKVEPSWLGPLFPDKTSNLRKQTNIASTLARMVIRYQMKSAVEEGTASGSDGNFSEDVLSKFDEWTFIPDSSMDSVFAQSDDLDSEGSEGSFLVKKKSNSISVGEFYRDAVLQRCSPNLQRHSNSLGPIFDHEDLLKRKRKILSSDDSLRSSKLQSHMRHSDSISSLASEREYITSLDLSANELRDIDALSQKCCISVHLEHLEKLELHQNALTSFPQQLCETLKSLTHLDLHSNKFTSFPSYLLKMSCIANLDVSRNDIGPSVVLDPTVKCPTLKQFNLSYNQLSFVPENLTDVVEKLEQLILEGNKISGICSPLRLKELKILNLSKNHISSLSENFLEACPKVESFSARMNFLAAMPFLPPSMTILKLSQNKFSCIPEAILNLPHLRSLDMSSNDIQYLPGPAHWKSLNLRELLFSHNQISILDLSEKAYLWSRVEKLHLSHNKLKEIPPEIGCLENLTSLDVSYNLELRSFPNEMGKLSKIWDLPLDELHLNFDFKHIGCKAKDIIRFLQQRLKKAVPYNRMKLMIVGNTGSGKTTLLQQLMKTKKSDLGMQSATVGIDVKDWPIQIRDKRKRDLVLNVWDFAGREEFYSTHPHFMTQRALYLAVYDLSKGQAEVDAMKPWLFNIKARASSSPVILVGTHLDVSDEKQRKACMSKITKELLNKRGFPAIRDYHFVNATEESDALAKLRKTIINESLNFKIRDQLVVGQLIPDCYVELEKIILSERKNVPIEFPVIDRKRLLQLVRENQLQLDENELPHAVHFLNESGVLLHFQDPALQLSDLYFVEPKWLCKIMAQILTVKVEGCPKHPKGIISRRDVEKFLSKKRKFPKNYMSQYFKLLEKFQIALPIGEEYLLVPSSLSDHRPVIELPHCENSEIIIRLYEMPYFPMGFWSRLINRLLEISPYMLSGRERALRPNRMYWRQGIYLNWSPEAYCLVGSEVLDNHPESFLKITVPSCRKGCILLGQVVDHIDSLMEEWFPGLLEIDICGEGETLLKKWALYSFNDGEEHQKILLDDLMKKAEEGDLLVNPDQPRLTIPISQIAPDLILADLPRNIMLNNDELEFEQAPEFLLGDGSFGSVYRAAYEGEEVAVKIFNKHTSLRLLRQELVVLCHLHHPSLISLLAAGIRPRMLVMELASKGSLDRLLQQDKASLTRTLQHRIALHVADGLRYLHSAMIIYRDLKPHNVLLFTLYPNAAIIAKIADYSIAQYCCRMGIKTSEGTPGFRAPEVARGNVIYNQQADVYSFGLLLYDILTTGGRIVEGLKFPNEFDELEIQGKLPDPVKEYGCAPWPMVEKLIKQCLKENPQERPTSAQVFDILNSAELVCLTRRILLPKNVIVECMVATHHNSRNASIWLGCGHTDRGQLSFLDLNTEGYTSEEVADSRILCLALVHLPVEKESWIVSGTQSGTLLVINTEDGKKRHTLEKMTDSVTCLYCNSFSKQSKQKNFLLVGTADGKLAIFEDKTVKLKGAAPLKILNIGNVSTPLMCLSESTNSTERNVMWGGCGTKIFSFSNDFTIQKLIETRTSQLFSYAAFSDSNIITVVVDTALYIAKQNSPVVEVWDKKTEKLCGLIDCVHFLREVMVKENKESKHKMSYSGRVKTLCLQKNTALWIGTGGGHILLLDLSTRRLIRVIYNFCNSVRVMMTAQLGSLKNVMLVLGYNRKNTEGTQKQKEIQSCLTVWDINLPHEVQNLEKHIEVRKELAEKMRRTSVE
Assay [19] has as its target Mitogen-activated protein kinase kinase kinase 1 (Homo sapiens) (UniProt Q13233). The experiment in a line: Inhibition of wild-type human partial length MAP3K1 (L1202 to W1512 residues) expressed in mammalian expression system at 1 uM by Kinomescan method relative to control.
The target in assay [20] is Tyrosine-protein kinase receptor UFO (Homo sapiens) (UniProt P30530). The experiment in a line: Inhibition of wild-type human partial length AXL (R497 to Y821 residues) expressed in bacterial expression system at 1 uM by Kinomescan method relative to control.
Sequence of Tyrosine-protein kinase receptor UFO (Homo sapiens) (P30530 whole entry, the tested form may be a part): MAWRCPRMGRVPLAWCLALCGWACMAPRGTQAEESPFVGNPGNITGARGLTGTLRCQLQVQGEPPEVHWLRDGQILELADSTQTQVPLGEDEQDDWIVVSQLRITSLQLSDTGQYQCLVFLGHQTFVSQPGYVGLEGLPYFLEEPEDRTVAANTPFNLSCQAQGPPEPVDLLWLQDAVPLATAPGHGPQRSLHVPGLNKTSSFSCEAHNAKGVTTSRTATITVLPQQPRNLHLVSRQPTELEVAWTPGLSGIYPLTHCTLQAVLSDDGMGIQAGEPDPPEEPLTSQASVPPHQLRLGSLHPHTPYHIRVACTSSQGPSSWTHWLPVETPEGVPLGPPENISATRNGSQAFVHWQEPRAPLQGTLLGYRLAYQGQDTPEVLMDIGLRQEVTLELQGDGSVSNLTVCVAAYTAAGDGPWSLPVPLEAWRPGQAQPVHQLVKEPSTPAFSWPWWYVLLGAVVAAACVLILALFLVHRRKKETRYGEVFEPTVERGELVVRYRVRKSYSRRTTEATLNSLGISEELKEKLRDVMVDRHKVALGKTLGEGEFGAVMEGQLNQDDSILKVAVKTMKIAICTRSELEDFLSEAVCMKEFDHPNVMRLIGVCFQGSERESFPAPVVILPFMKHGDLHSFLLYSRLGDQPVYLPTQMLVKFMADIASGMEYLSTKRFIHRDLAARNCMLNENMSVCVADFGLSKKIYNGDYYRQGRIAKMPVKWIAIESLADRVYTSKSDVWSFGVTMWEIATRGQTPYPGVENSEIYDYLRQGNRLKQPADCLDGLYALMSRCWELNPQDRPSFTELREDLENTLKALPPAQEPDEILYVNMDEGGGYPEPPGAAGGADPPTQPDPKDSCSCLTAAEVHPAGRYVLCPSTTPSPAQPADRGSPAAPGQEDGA
Assay [21] deals with G protein-coupled receptor kinase 3 (Homo sapiens) (UniProt P35626). The experiment in a line: Inhibition of wild-type human full length GRK3 (M1 to L688 residues) expressed in mammalian expression system at 1 uM by Kinomescan method relative to control.
Assay [22] deals with Serine/threonine-protein kinase PAK 3 (Homo sapiens) (UniProt O75914). The experiment in a line: Inhibition of wild-type human full length PAK3 (M1 to R544 residues) expressed in bacterial expression system at 1 uM by Kinomescan method relative to control.
In assay [23] the target is Serine/threonine-protein kinase STK11 (Homo sapiens) (UniProt Q15831). The experiment in a line: Inhibition of wild-type human full length LKB1 (M1 to Q433 residues) expressed in bacterial expression system at 1 uM by Kinomescan method relative to control.
The target of assay [24] is Phosphorylase b kinase gamma catalytic chain, liver/testis isoform (Homo sapiens) (UniProt P15735). The experiment in a line: Inhibition of wild-type human partial length PHKG2 (M1 to W300 residues) expressed in bacterial expression system at 1 uM by Kinomescan method relative to control.
Assay [25] concerns Proto-oncogene tyrosine-protein kinase receptor Ret (Homo sapiens), P07949 [M918T]. The experiment in a line: Inhibition of human partial length RET M918T mutant (E713 to D1014 residues) expressed in bacterial expression system at 1 uM by Kinomescan method relative to control.
The target in assay [26] is Casein kinase I isoform delta (Homo sapiens) (UniProt P48730). The experiment in a line: Inhibition of wild-type human full length CSNK1D (M1 to K409 residues) expressed in bacterial expression system at 1 uM by Kinomescan method relative to control.
In assay [27] the target is Serine/threonine-protein kinase BRSK2 (Homo sapiens) (UniProt Q8IWQ3). The experiment in a line: Inhibition of wild-type human full length BRSK2 (M1 to L674 residues) expressed in bacterial expression system at 1 uM by Kinomescan method relative to control.

In the case of `O=C(Nc1cccc([C@H]2CCCN(c3ncnc4[nH]ccc34)C2)c1)Nc1ccccc1N1CCCC1`, the inhibition (commonly how much of the control response was suppressed) in assay [1] is 59%; in assay [2], 99%; in assay [3] it was 43%; in assay [4], 89%; in assay [5], 99%; in [6] it was 100%. Further, the inhibition worked out at 77% in assay [7]; 97% in [8]; 87% in assay [9]; 70% in assay [10]; 48% in [11]; 74% in [12]. For the same compound, the inhibition in assay [13] was 63%; in assay [14], 93%; in assay [15], 8.1%; in assay [16], 49%; in assay [17] it was 46%.

For the compound `O=C(Nc1cccc([C@@H]2CN(c3ncnc4[nH]ccc34)CCN2CCO)c1)Nc1c(F)cccc1N1CCCC1`, the inhibition turned out to be 100% in assay [18]; 70% in [19]; 23% in assay [20]; 93% in assay [21]; 72% in assay [22]; 87% in [23]. For the same compound, the inhibition in assay [24] is 100%; in assay [25], 0.05%; in assay [26], 100%; in assay [27], 98%.
